# According to patent US20170128483A1, “HOST DEPENDENCY FACTORS AS TARGETS FOR ANTIVIRAL THERAPY” (Ruprecht-Karls-Universitat Heidelberg, priority 2014, published 2017):
# Counter-ions that a name gives are not always drawn. Like-named read-outs stand apart in the source and are kept apart here.
# What was measured:
# DENV-2 [1] = test: Virus yield inhibition assay, DENV-2 in Huh7 cells, titers by plaque assay; conditions: for Maximum effect on DENV replication (in words) / Emax: Huh7, DENV-2 MOI 0.1, 48 h; for Emax / EC50: Dengue virus; for Emax: DENV2, Huh-7, 48 h
# PPARα = target: T1, PPARα (Homo sapiens, UniProt Q07869); conditions: antagonist; cited from earlier work
# T1 sequence (Q07869 1-468): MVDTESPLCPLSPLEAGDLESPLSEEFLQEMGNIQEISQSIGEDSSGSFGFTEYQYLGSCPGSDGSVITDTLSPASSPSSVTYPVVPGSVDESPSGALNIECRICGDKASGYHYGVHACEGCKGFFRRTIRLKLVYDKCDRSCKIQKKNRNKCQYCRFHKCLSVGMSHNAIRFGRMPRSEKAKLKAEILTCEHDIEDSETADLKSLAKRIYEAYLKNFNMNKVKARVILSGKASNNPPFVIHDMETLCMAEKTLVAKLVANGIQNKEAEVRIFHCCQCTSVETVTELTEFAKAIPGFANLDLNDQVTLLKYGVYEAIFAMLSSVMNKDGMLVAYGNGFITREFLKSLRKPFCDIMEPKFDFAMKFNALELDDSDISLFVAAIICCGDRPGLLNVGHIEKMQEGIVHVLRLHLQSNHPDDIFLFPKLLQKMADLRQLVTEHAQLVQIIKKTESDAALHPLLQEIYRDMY
# PPARγ = target: T2, PPARγ (Homo sapiens, UniProt P37231); conditions: antagonist; cited from earlier work
# T2 sequence (P37231 1-505): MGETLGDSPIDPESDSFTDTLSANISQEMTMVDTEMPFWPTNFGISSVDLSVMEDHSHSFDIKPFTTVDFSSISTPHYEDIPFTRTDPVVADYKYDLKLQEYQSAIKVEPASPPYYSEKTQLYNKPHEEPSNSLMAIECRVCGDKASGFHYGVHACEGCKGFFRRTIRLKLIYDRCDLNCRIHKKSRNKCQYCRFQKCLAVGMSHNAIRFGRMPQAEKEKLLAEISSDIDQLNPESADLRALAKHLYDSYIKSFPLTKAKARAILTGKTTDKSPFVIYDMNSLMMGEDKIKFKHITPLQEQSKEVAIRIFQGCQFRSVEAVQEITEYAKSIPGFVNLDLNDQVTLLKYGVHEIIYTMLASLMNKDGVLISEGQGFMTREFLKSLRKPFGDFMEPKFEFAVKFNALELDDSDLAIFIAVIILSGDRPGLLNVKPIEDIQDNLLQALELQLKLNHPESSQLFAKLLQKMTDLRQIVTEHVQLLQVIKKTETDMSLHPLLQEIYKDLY
# DENV-1 = test: Virus yield inhibition assay, DENV-1 in Huh7 cells; assay type: cell-based, Dengue virus; conditions: 200 μM, Huh7, 48 h
# Source text: (§1) Given the only 62-67% of amino acid conservation among DENV serotypes (Kyle & Harris 2008), the different serotypes might not be equally dependent on the same host factors for their replication.
# DENV-3 = test: Virus yield inhibition assay, DENV-3 in Huh7 cells; assay type: cell-based, Dengue virus; conditions: 200 μM, Huh7, 48 h
# Source text: as §1
# DENVTCP = test: Time-of-addition with single-round DENVTCP particles in Huh7 cells, Rluc; conditions: 200 μM, readout 48 h
# primary human monocytes = test: Viability of primary human monocytes (ATP content); assay type: cell-based; conditions: 48 h
# DENVsg reporter replicon = test: microbe, parasite or virus in culture; assay type: cell-based, Dengue virus
# [2] = Cell viability of Huh7 cells (ATP content / F-Luc activity); conditions: human
# DENV-2 [3] = test: Virus yield inhibition, DENV-2 in primary human monocytes, plaque assay; assay type: cell-based; conditions: Dengue virus, DENV2, Monocyte
# Description: Primary human monocytes isolated from peripheral blood from healthy donors were infected with DENV-2 at an MOI of 10 PFU/cell in the presence of the drug.
# Peripheral blood samples from three healthy donors were collected in EDTA tubes. The blood was then diluted with 2 volumes of DPBS without calcium and without magnesium (PAN Biotech) and carefully layered onto Ficoll-hypaque (PAN Biotech). The blood was then subjected to centrifugation at 700 g, without brakes. The interphase cells containing the peripheral blood mononuclear cells (PBMCs) were aspirated, transferred to a clean tube and washed three times with DPBS. CD14+ monocytes were isolated using MicroBeads conjugated to monoclonal anti-human CD14 antibodies (MACS Miltenyi Biotec) according to the manufacturer's instructions, with some modifications. Briefly, 10 μl of Microbeads were incubated with 1×10^7 cells for 15 min at 4° C. After washing with DPBS magnetic separation of CD14+ monocytes was performed using an autoMACS Separator. The purity of the isolated monocytes (89.8% for donor 1, 94.8% for donor 2 and 97.7% for donor 3) was corroborated by FACS staining using anti-CD14 antibodies.
# Identification of host factors using RNAi may depend to a large extent on the cellular system chosen to perform the screen, what argues for the need of testing the selected hit candidates in cellular systems more representative of the infection in nature. […] The impact of the drug on virus production was assessed by plaque assay 48 h after infection.
# DENV(GND)sg-R2A = assay type: cell-based, Dengue virus; conditions: 200 μM, initial 10 h of transfection
# DENV-4 = test: Virus yield inhibition assay, DENV-4 in Huh7 cells; assay type: cell-based, Dengue virus; conditions: 200 μM, Huh7, 48 h
# Source text: as §1
# [4] = concentration per compound as in Table 1
# [5] = read-out: Maximum effect on DENV replication (inhibition), inhibition of virus production, concentration per compound as in Table 1 column 'Concentration used (FIG. 3B)'
smiles,measurement,setting,value
"COc1ccccc1CNCCCCCCNCCCCCCCCNCCCCCCNCc1ccccc1OC [Methoctramine hydrate, N,N,′-bis[6-[[(2-Methoxyphenyl)methyl]amino]hexyl]-1,8-octane diaminetetrahydrochloride hydrate]",Maximum effect on DENV replication (in words),DENV-2 [1]; [4],inactive
"COC(=O)c1sccc1S(=O)(=O)Nc1ccc(Nc2ccccc2)cc1OC [GSK0660, 3-(((2-Methoxy-4-(phenylamino)phenyl)amino)sulfonyl)-2-thio-phenecarboxylic acid methyl ester]",IC50,PPARα,> 10 µM
same,Emax,DENV-2 [1]; [5],~62%
same,IC50,PPARγ,> 10 µM
"N=C(CCl)NCCC[C@H](NC(=O)c1ccccc1)C(N)=O [Cl-amidine, N-α-benzoyl-N5-(2-chloro-1-iminoethyl)-L-ornithine amide]",reduction on virus production,DENV-1,10 fold
same,reduction on virus production,DENV-3,10 fold
same,time of addition after infection up to which inhibitory effect remained significant,DENVTCP,up to 8 h
same,cytotoxicity for primary human monocytes,primary human monocytes,not cytotoxic
same,luciferase activity vs DMSO-treated cells,"DENVsg reporter replicon; 200 μM, initial 10 h of transfection",no difference in luciferase activity
same,EC50,"DENVsg reporter replicon; Dengue virus, Huh-7, 48 h, read-out: EC50 (R-Luc activity)",16.5 ± 2.49 µM
same,CC50 at 48 h,[2],> 1000 µM
same,EC50,"DENV-2 [3]; 48 h, monocytes of Donor 1, MOI 10, 48 h, read-out: EC50",16.9 µM
same,EC50,"DENV-2 [3]; 48 h, monocytes of Donor 2, MOI 10, 48 h, read-out: EC50",24.6 µM
same,EC50,"DENV-2 [3]; 48 h, monocytes of Donor 3, MOI 10, 48 h, read-out: EC50",22.9 µM
same,EC50,"DENV-2 [3]; three donors, read-out: EC50 values among different donors",17 to 25 µM
same,luciferase activity vs DMSO-treated cells,DENV(GND)sg-R2A,no difference in luciferase activity
same,reduction on virus production,"DENV-2 [1]; 200 μM, Huh7, 48 h",10 fold
same,Emax,DENV-2 [1]; [5],92.7%
same,EC50,"DENV-2 [1]; DENV2, Huh-7, Huh7 transduced with shNT#2",17.1 µM
same,EC50,"DENV-2 [1]; DENV2, Huh-7, Huh7 transduced with shPADI4#4 (PADI4 silenced)",1.18 µM
same,EC50,"DENV-2 [1]; DENV2, Huh-7, read-out: EC50 ± SD",215 ± 19 µM
same,EC50,"DENV-2 [1]; DENV2, Huh-7, read-out: EC50 ± SD, Huh7-Empty control cell line",19.3 ± 2.36 µM
same,EC50,"DENV-2 [1]; DENV2, Huh-7, read-out: EC50 ± SD, Parental Huh7, 2 h pretreatment, 48 h",16.1 µM
same,inhibition of virus titers,"DENV-2 [1]; highest concentration tested, Huh7",up to 100 fold
same,reduction on virus production,DENV-4,10 fold
Cc1cc(SCc2sc(-c3ccc(C(F)(F)F)c(F)c3)nc2C)ccc1OCC(=O)O [GW0742],Emax,"DENV-2 [1]; read-out: Maximum effect on DENV replication (enhancement), enhancement of virus production, concentration per compound as in Table 1",~48%
"O=C(NCc1ccc2c(c1)OCO2)c1c(Cl)cccc1Cl [Alda-1, N-(1,3-Benzodioxol-5-ylmethyl)-2,6-dichlorobenzamide]",Maximum effect on DENV replication (in words),DENV-2 [1]; [4],inactive
"CC1CCC(C(C)C)C(O)C1 (centres unmarked) [Menthol, 2-Isopropyl-5-methylcyclohexanol]",Maximum effect on DENV replication (in words),DENV-2 [1]; [4],inactive
"COc1ccc(NC(=O)C2C[C@H](C)CC[C@H]2C(C)C)cc1 (stereo partly drawn) [WS-12, (2S,5R)-2-Isopropyl-N-(4-methoxyphenyl)-5-methylcyclohexane carboximide]",Maximum effect on DENV replication (in words),DENV-2 [1]; [4],inactive
"Cl.N=C(N)CCl [2CA, 2-chloroethanimidamide hydrochloride]",inhibition on virus production,"DENV-2 [1]; 50 μM, Huh7, 48 h",77%
"C=C(C)C1CNC(C(=O)O)C1CC(=O)O (centres unmarked) [Kainic acid monohydrate, 2-Carboxy-3-carboxymethyl-4-isopropenylpyrrolidine]",Maximum effect on DENV replication (in words),DENV-2 [1]; [4],inactive
"Oc1cc2c(cc1O)CN(C(=S)NCCc1ccc(Cl)cc1)CCC2 [Capsazepine, N-[2-(4-Chlorophenyl)ethyl]-1,3,4,5-tetrahydro-7,8-dihydroxy-2H-2-benzazepine-2-carbothioamide]",Maximum effect on DENV replication (in words),DENV-2 [1]; [4],inactive
"C[N+](C)(C)CC#CCN1CCCC1=O.[I-] [Oxotremorine M, N,N,N,-trimethyl-4-(2-oxo-1-pyrrolidinyl)-2-butyn-1-ammonium iodide]",Maximum effect on DENV replication (in words),DENV-2 [1]; [4],inactive
"O=c1c(-c2ccc(O)cc2)coc2cc(O[C@@H]3O[C@H](CO)[C@@H](O)[C@H](O)[C@H]3O)ccc12 [Daidzin, Daidzein-7-O-β-D-glucopyranoside]",Maximum effect on DENV replication (in words),DENV-2 [1]; [4],inactive
"CN1C2CCC1CC(OC(=O)C(CO)c1ccccc1)C2 (stereo not drawn) [Atropine, α-(Hydroxymethyl)benzeneacetic acid 8-methyl-8-azabicyclo[3.2.1]oct-3-yl ester]",Maximum effect on DENV replication (in words),DENV-2 [1]; [4],inactive
